Laboratory results published in patent publication US11987588B2, “Modulators of the beta-3 adrenergic receptor useful for the treatment or prevention of heart failure and disorders related thereto” (Arena Pharmaceuticals, Inc., priority 2017, dated 2024).

target: Beta-3 Adrenergic Receptor (Homo sapiens (Human), UniProt P13945); test: Homogeneous Time-Resolved Fluorescence (HTRF) cAMP antagonist assay, IC50 determination; format: cell-based; settings: CHO-K1 cells stably expressing recombinant receptor, isoproterenol at EC90
Summary of the method: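 In this functional readout, recombinant CHO-K1 cells received compound, then isoproterenol at its EC90. After 1 h at room temperature, cAMP levels were determined by HTRF using an on-plate standard curve, and IC50 values were fitted.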

Chain of Beta-3 Adrenergic Receptor (P13945 whole entry, species assumed): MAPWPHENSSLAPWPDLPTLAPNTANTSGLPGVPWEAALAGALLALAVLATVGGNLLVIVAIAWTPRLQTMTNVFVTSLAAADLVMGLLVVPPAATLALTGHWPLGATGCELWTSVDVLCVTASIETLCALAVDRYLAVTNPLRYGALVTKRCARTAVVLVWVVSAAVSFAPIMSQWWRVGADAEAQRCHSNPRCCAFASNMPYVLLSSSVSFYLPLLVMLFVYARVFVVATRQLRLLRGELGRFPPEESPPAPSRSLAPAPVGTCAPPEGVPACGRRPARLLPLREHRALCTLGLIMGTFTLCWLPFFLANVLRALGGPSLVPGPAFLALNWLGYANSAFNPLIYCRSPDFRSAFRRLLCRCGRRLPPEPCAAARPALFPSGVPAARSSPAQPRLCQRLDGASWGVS

| Structure (SMILES) | IC50 [nM] |
| --- | --- |
| CNS(=O)(=O)c1cccc(OC[C@@H](O)CNC2COC3(CCN(S(=O)(=O)c4cncc(-c5ccc(CN)nc5)c4)CC3)C2)c1 (stereo partly drawn) [Compound 388, 3-((2S)-3-(8-(6′-(aminomethyl)-3,3′-bipyridin-5-ylsulfonyl)-1-oxa-8-azaspiro[4.5]decan-3-ylamino)-2-hydroxypropoxy)-N-methylbenzenesulfonamide] | 79.4 |
| CNS(=O)(=O)c1cccc(OC[C@@H](O)CN[C@@H]2COC3(CCN(S(=O)(=O)c4cnn(-c5ccccc5)c4C)CC3)C2)c1 [Compound 280, 3-((S)-2-hydroxy-3-((S)-8-(5-methyl-1-phenyl-1H-pyrazol-4-ylsulfonyl)-1-oxa-8-azaspiro[4.5]decan-3-ylamino)propoxy)-N-methylbenzenesulfonamide] | 98 |
| CC(O)CNS(=O)(=O)c1cccc(OC[C@@H](O)CNC2COC3(CCN(S(=O)(=O)c4ccc5ccccc5c4)CC3)C2)c1 (stereo partly drawn) [Compound 46, 3-((2S)-2-hydroxy-3-(8-(naphthalen-2-ylsulfonyl)-1-oxa-8-azaspiro[4.5]decan-3-ylamino)propoxy)-N-(2-hydroxypropyl)benzenesulfonamide] | 54.1 |
| CNS(=O)(=O)c1cccc(OC[C@@H](O)CNC2COC3(CCN(S(=O)(=O)c4cccc(-c5ccc(CNCCN(C)C)cc5)c4)CC3)C2)c1 (stereo partly drawn) [Compound 305, 3-((2S)-3-(8-(4′-((2-(dimethylamino)ethylamino)methyl)biphenyl-3-ylsulfonyl)-1-oxa-8-azaspiro[4.5]decan-3-ylamino)-2-hydroxypropoxy)-N-methylbenzenesulfonamide] | 63.5 |
| CN(C)S(=O)(=O)c1cccc(OC[C@@H](O)CNC2COC3(CCN(S(=O)(=O)c4ccc5c(c4)CCCC5)CC3)C2)c1 (stereo partly drawn) [Compound 253, 3-((2S)-2-hydroxy-3-(8-(5,6,7,8-tetrahydronaphthalen-2-ylsulfonyl)-1-oxa-8-azaspiro[4.5]decan-3-ylamino)propoxy)-N,N-dimethylbenzenesulfonamide] | 22.6 |
| CNS(=O)(=O)c1cccc(OC[C@@H](O)CN[C@H]2COC3(CCN(S(=O)(=O)c4cnc5ccccc5c4)CC3)C2)c1 [Compound 336, 3-((S)-2-hydroxy-3-((R)-8-(quinolin-3-ylsulfonyl)-1-oxa-8-azaspiro[4.5]decan-3-ylamino)propoxy)-N-methylbenzenesulfonamide] | 15.3 |
| CNS(=O)(=O)c1cccc(OC[C@@H](O)CNC2COC3(CCN(S(=O)(=O)c4cccc(-c5ccc(C(N)=O)cc5)c4)CC3)C2)c1 (stereo partly drawn) [Compound 368, 3′-(3-((S)-2-hydroxy-3-(3-(N-methylsulfamoyl)phenoxy)propylamino)-1-oxa-8-azaspiro[4.5]decan-8-ylsulfonyl)biphenyl-4-carboxamide] | 35.2 |
| CNS(=O)(=O)c1cccc(OC[C@@H](O)CN[C@@H]2COC3(CCN(S(=O)(=O)c4cc(C)ccc4F)CC3)C2)c1 [Compound 268, 3-((S)-3-((S)-8-(2-fluoro-5-methylphenylsulfonyl)-1-oxa-8-azaspiro[4.5]decan-3-ylamino)-2-hydroxypropoxy)-N-methylbenzenesulfonamide] | 12.3 |

Other lines, results leading:

| IC50 [nM] | Structure (SMILES) |
| --- | --- |
| 83.9 | CCn1cc(S(=O)(=O)N2CCC3(CC2)C[C@@H](NC[C@H](O)COc2cccc(S(N)(=O)=O)c2)CO3)c(=O)c2ccc(C)cc21 [Compound 557, 3-((S)-3-((R)-8-(1-ethyl-7-methyl-4-oxo-1,4-dihydroquinolin-3-ylsulfonyl)-1-oxa-8-azaspiro[4.5]decan-3-ylamino)-2-hydroxypropoxy)benzenesulfonamide] |
| 204 | CNS(=O)(=O)c1cccc(OC[C@@H](O)CN[C@H]2COC3(CCN(S(=O)(=O)c4cnc5c(c4)C(=O)NC5)CC3)C2)c1 [Compound 478, 3-((S)-2-hydroxy-3-((R)-8-(5-oxo-6,7-dihydro-5H-pyrrolo[3,4-b]pyridin-3-ylsulfonyl)-1-oxa-8-azaspiro[4.5]decan-3-ylamino)propoxy)-N-methylbenzenesulfonamide] |
| 1450 | CNS(=O)(=O)c1cccc(OC[C@@H](O)CN[C@H]2COC3(CCN(c4ccncn4)CC3)C2)c1 [Compound 589, 3-((S)-2-hydroxy-3-((R)-8-(pyrimidin-4-yl)-1-oxa-8-azaspiro[4.5]decan-3-ylamino)propoxy)-N-methylbenzenesulfonamide] |
| 11.9 | CNS(=O)(=O)c1cccc(OC[C@@H](O)CN[C@@H]2COC3(CCN(S(=O)(=O)c4cccc(-c5ccc(C6(N)CC6)cc5)c4)CC3)C2)c1 [Compound 446, 3-((S)-3-((S)-8-(4′-(1-aminocyclopropyl)biphenyl-3-ylsulfonyl)-1-oxa-8-azaspiro[4.5]decan-3-ylamino)-2-hydroxypropoxy)-N-methylbenzenesulfonamide] |
| 29.6 | CN1CCOc2ncc(S(=O)(=O)N3CCC4(CC3)C[C@@H](NC[C@H](O)COc3cccc(S(=O)(=O)NCCF)c3)CO4)cc21 [Compound 457, N-(2-fluoroethyl)-3-((S)-2-hydroxy-3-((R)-8-(1-methyl-2,3-dihydro-1H-pyrido[2,3-b][1,4]oxazin-7-ylsulfonyl)-1-oxa-8-azaspiro[4.5]decan-3-ylamino)propoxy)benzenesulfonamide] |
| 16.8 | CNS(=O)(=O)c1cccc(OC[C@@H](O)CN[C@H]2COC3(CCN(S(=O)(=O)c4cnc5c(c4)N(C)CCO5)CC3)C2)c1 [Compound 414, 3-((S)-2-hydroxy-3-((R)-8-(1-methyl-2,3-dihydro-1H-pyrido[2,3-b][1,4]oxazin-7-ylsulfonyl)-1-oxa-8-azaspiro[4.5]decan-3-ylamino)propoxy)-N-methylbenzenesulfonamide] |
| 61.5 | CNS(=O)(=O)c1cccc(OC[C@@H](O)CNC2COC3(CCN(S(=O)(=O)c4ccc(NCCO)nc4)CC3)C2)c1 (stereo partly drawn) [Compound 428, 3-((2S)-2-hydroxy-3-(8-(6-(2-hydroxyethylamino)pyridin-3-ylsulfonyl)-1-oxa-8-azaspiro[4.5]decan-3-ylamino)propoxy)-N-methylbenzenesulfonamide] |
| 31.8 | CNS(=O)(=O)c1cccc(OC[C@@H](O)CN[C@H]2COC3(CCN(S(=O)(=O)c4cnc5c(c4)NCCO5)CC3)C2)c1 [Compound 444, 3-((S)-3-((R)-8-(2,3-dihydro-1H-pyrido[2,3-b][1,4]oxazin-7-ylsulfonyl)-1-oxa-8-azaspiro[4.5]decan-3-ylamino)-2-hydroxypropoxy)-N-methylbenzenesulfonamide] |
| 541 | CNS(=O)(=O)c1cccc(OC[C@@H](O)CN[C@H]2COC3(CCN(S(=O)(=O)c4ccc[n+]([O-])c4)CC3)C2)c1 [Compound 496, 3-((R)-3-((S)-2-hydroxy-3-(3-(N-methylsulfamoyl)phenoxy)propylamino)-1-oxa-8-azaspiro[4.5]decan-8-ylsulfonyl)pyridine 1-oxide] |
| 28.2 | CCOc1nc2c(cc1S(=O)(=O)N1CCC3(CC1)C[C@H](NC[C@H](O)COc1cccc(S(=O)(=O)NC)c1)CO3)N(C)CCO2 [Compound 450, 3-((S)-3-((S)-8-(6-ethoxy-1-methyl-2,3-dihydro-1H-pyrido[2,3-b][1,4]oxazin-7-ylsulfonyl)-1-oxa-8-azaspiro[4.5]decan-3-ylamino)-2-hydroxypropoxy)-N-methylbenzenesulfonamide] |
| 20.4 | CNS(=O)(=O)c1cccc(OC[C@@H](O)CNC2COC3(CCN(S(=O)(=O)c4ccc(-c5ccccn5)cc4)CC3)C2)c1 (stereo partly drawn) [Compound 402, 3-((2S)-2-hydroxy-3-(8-(4-(pyridin-2-yl)phenylsulfonyl)-1-oxa-8-azaspiro[4.5]decan-3-ylamino)propoxy)-N-methylbenzenesulfonamide] |
